According to US20060222628A1, “Gallium complexes of 3-hydroxy-4-pyrones to treat infection by intracellular prokaryotes and DNA viruses” (priority 1999, published 2006):

Key:
[1] = format: physicochemical
Experimental: The material forms white to pale beige monoclinic crystals with unit cell parameters of about a=7.899(1)Å, b=8.765(1)Å, c=31.626(2)Å, beta=103.253(7) degrees, V=2131 Å^3, based on powder x-ray diffraction analysis. The solubility of this compound is measured as about 5 millimolar in distilled deionized water at 23° C. Crystallization from other solvents or under other conditions may produce other crystal structures. Under some conditions, water or other solvents may also be incorporated into the structure. […] About 5.5 grams of powdered anhydrous sodium carbonate are added, and stirring continues for additional 12 minutes. […] The remaining crystalline solid is the 3:1 maltol gallium composition. […] The solubility of this composition is measured as about 24 millimolar in distilled deionized water at 23° C.

[2] = in vivo, po; cited from earlier work

Cc1occc(=O)c1[O-].Cc1occc(=O)c1[O-].Cc1occc(=O)c1[O-].[Ga+3] [gallium maltolate, tris(3-hydroxy-2-methyl-4H-pyran-4-onato)gallium]
Solubility [1]: about 24 millimolar | Renotoxicity or nephrotoxicity [2]: no renotoxicity or nephrotoxicity has been observed
